The source of these data is ChEMBL document CHEMBL5727938, “HIV protease inhibitors” (2020).

For orientation: pEC50 means the EC50 on a negative log10 scale, so that one unit is a factor of ten. Low readings indicate a large EC50, high ones a small EC50.

Structures are written as SMILES. pEC50: −log10 of the molar value.

The nature of this assay: MT-4 HIV High Resolution Antiviral Assay: Assay protocol is identical to that described for the MT-4 antiviral assay with the following changes: Each drug is run in 2 series of quadruplicates with different starting concentrations for each series and 19 1.5 fold dilutions performed across the plate. […] Data is analyzed and Hill coefficients determined in Graph Pad Prism (San Diego, Calif.).
As for `CC(C)(C)C[C@]1(c2ccc(-c3nncn3C(F)F)cc2F)NC(=N)N([C@H](COC(=O)C2(C(F)(F)F)CC2)c2ccc(Cl)c(-n3ncnc3C(F)F)c2)C1=O`, the pEC50 is 7.12.
Turning to `CC(C)(C)C[C@]1(c2ccc(-c3ncccn3)cc2)NC(=N)N([C@H](COC(=O)NC2(C(F)(F)F)CC2)c2ccc(Cl)c(C3=NC=NC3C(F)F)c2)C1=O` (stereo partly drawn), the pEC50 is 8.17.
In the case of `CC(C)(C)C[C@]1(c2ccc(-c3cnn(C(F)F)c3)c(F)c2F)NC(=N)N([C@H](COC(=O)NC2(C)CC2)c2ccc(Cl)c(-n3cncn3)c2)C1=O`, the negative logarithm of the EC50 (pEC50) is 8.06.
With `CC(C)(C)C[C@]1(c2ccc(-c3cnn(C(F)F)c3)cc2)NC(=N)N([C@H](COC(=O)NC2(C(F)(F)F)CC2)c2ccc(-n3ncnc3C(F)F)cc2)C1=O` the figure was 6.87; with `CC(C)(C)C[C@]1(c2ccc(-c3cnn(C(F)F)c3)cc2)NC(=N)N([C@H](COC(=O)NC2(C(F)(F)F)CC2)c2ccc(Cl)c(-n3ncnc3C(F)F)c2)C1=O`, 7.55; with `CC(C)(C)C[C@H]1C(=O)N([C@H](COC(=O)NC2(C(F)(F)F)CC2)c2ccc(F)c(-c3ncnn3C(F)F)c2)C(=N)N1c1ccc(-c2cnn(C(F)F)c2)cc1`, 7.55.
Compound `CC(C)(C)C[C@]1(c2ccc(-c3ccn(C4CC4)n3)cc2F)NC(=N)C([C@H](COC(=O)NC2(C(F)(F)F)CC2)c2ccc(Cl)c(-n3ncnc3C(F)F)c2)C1=O` (stereo partly drawn) had a negative logarithm of the EC50 (pEC50) of 7.73.
On to `CC(C)(C)C[C@]1(c2ccc(-c3ccn(C4CC4)n3)cc2)NC(=N)C([C@H](COC(=O)NC2(C(F)(F)F)CC2)c2ccc(Cl)c(-n3ncnc3C(F)F)c2)C1=O` (stereo partly drawn), for which the pEC50 is 7.94.
Turning to `CC(C)(C)C[C@]1(c2ccc(-c3cnn(C4CC4)n3)c(F)c2)NC(=N)N([C@H](COC(=O)NC2(C(F)(F)F)CC2)c2ccc(Cl)c(-c3ncnn3C(F)F)c2)C1=O`, the negative logarithm of the EC50 (pEC50) was 8.10.
As to `CC(C)(C)C[C@H]1C(=O)N([C@H](COC(=O)NC(C)(C)C(F)F)c2ccc(Cl)c(-c3ncnn3C(F)F)c2)C(=N)N1c1ccc(-c2ncccn2)cc1`, the pEC50 was 7.92.
`CC(C)(C)C[C@]1(c2ccc(-c3cnn(C4CC4)n3)cc2)NC(=N)N([C@H](COC(=O)NC2(C(F)(F)F)CC2)c2ccc(Cl)c(-c3ncnn3C(F)F)c2)C1=O` showed a pEC50 of 7.78.
With `CC(C)(C)C[C@]1(c2ccc(-c3cnccn3)cc2)NC(=N)C([C@H](COC(=O)NC2(C(F)(F)F)CC2)c2ccc(Cl)c(-c3ncn[nH]3)c2)C1=O` (stereo partly drawn) the figure was 7.09; with `CC(C)(F)C[C@H]1C(=O)N([C@H](COC(=O)NC(C)(C)C(F)F)c2ccc(Cl)c(-c3ncnn3C(F)F)c2)C(=N)N1c1ccc(Br)cc1`, 6.62.
